Read-outs that look alike come from different tables or passages of the source.
Legend:
spring wheat (TRZAS) = assay: Postemergence greenhouse trial, % visual injury on spring wheat; assay type: in vivo, Triticum aestivum
Procedure, shortened: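 Postemergence greenhouse spray (187 L/ha, 1.5% v/v Agri-dex in water, acetone/DMSO stocks) on plants at second–third true leaf stage, ~23/22 °C, 14 h photoperiod; herbicides in g ae/ha, safener cloquintocet-mexyl in g ai/ha. Visual injury 0–100% versus solvent-blank controls after 20–22 d; Colby's equation gave expected mixture effects.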

lambsquarters (CHEAL) = assay: Postemergence greenhouse trial, % visual injury on lambsquarters; assay type: in vivo, Chenopodium album
Procedure, shortened: (§1)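 Plants at second or third true leaf stage, greenhouse-grown (14 h photoperiod, ~23/22° C.), sprayed postemergence with compounds alone or with safener cloquintocet-mexyl in 1.5% v/v Agri-dex crop oil at 187 L/ha. Visual injury scored 0–100% versus solvent-blank controls after 20-22 d; expected mixture effects by Colby's equation.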

common poppy (PAPRH) = assay: Postemergence greenhouse trial, % visual injury on common poppy; assay type: in vivo, Papaver rhoeas; settings: PAPRH
Procedure, shortened: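 Herbicide rates g ae/ha, safener (cloquintocet-mexyl) rates g ai/ha; spray carrier 1.5% v/v crop oil concentrate, 187 L/ha, 2nd–3rd leaf stage. Rating: visual % injury at 20-22 d.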

wild chamomile (MATCH) = assay: Postemergence greenhouse trial, % visual injury on wild chamomile; assay type: in vivo, Matricaria chamomilla; settings: for % visual injury, Ob: CQC-m 0
Protocol: Seeds of the desired test plant species were planted in Sun Gro MetroMix® 306 planting mixture, which typically has a pH of 6.0 to 6.8 and an organic matter content of about 30 percent, in plastic pots with a surface area of 103.2 square centimeters (cm^2). When required to ensure good germination and healthy plants, a fungicide treatment and/or other chemical or physical treatment was applied. The plants were grown for 7-36 days (d) in a greenhouse with an approximate 14-hour (h) photoperiod which was maintained at about 23° C. during the day and 22° C. during the night. Nutrients and water were added on a regular basis and supplemental lighting was provided with overhead metal halide 1000-Watt lamps as necessary. The plants were employed for testing when they reached the second or third true leaf stage.
Weighed amounts of technical material were dissolved in a volume of 97:3 volume per volume (v/v) acetone/dimethyl sulfoxide (DMSO) to stock solutions. […] The concentrated stock solutions were diluted with an aqueous mixture of 1.5% v/v of Agri-dex crop oil concentrate to provide the appropriate application rates. Compound requirements are based upon a 12 milliliter (mL) application volume at a rate of 187 liters per hectare (L/ha). Stocks solutions of the safeners were prepared following the same procedure. Spray solutions of the safeners and experimental compound mixtures were prepared by adding the stock solutions to the appropriate amount of dilution solution to form a 12 mL spray solution in two-way combinations. Formulated compounds were applied to the plant material with an overhead Mandel track sprayer equipped with 8002E nozzles calibrated to deliver 187 L/ha over an application area of 0.503 square meters (m^2) at a spray height of 18 inches (43 centimeters (cm)) above average plant canopy. Control plants were sprayed in the same manner with the solvent blank. All herbicide application (component a) rates are in g ae/ha and all safener (component b) rates are in g ai/ha.
The treated plants and control plants were placed in a greenhouse as described above and watered by sub-irrigation to prevent wash-off of the test compounds. After 20-22 d, the condition of the test plants as compared with that of the control plants was determined visually and scored on a scale of 0 to 100 percent where 0 corresponds to no injury and 100 corresponds to complete kill. […] Colby's equation was used to determine the herbicidal effects expected from the mixtures. […]

thistle (CIRAR) = assay: Postemergence greenhouse trial, % visual injury on thistle; assay type: in vivo, Cirsium arvense
Procedure, shortened: as §1

winter rape (BRSNW) = assay: Postemergence greenhouse trial, % visual injury on winter rape; assay type: in vivo, Brassica napus
Procedure, shortened: as §1

[1] = compound 2 4.380 + CQC-m 0 g/ha

COC(=O)c1nc(-c2ccc3cc[nH]c3c2F)c(F)c(N)c1OC [compound 12]
% visual injury, Ob (spring wheat (TRZAS); TRZAS, compound 4.380 g/ha, CQC-m 0): 15%
% visual injury, Ob (spring wheat (TRZAS); TRZAS, compound 8.75 g/ha, CQC-m 0): 27%
% visual injury, Ob (spring wheat (TRZAS); TRZAS, compound 17.5 g/ha, CQC-m 0): 42%
% visual injury, Ob (spring wheat (TRZAS); TRZAS, compound 35 g/ha, CQC-m 0): 53%
% visual injury, Ob (spring wheat (TRZAS); TRZAS, compound 70 g/ha, CQC-m 0): 70%
pest or weed control at 4.38 g/ha (lambsquarters (CHEAL); Chenopodium album, post-emergence, CHEAL, compound 4.380 g/ha, CQC-m 0, read-out: % visual injury, Ob): 40%
pest or weed control at 8.75 g/ha (lambsquarters (CHEAL); Chenopodium album, post-emergence, CHEAL, compound 8.75 g/ha, CQC-m 0, read-out: % visual injury, Ob): 50%
pest or weed control at 17.5 g/ha (lambsquarters (CHEAL); Chenopodium album, post-emergence, CHEAL, compound 17.5 g/ha, CQC-m 0, read-out: % visual injury, Ob): 72%
pest or weed control at 35 g/ha (lambsquarters (CHEAL); Chenopodium album, post-emergence, CHEAL, compound 35 g/ha, CQC-m 0, read-out: % visual injury, Ob): 88%
pest or weed control at 70 g/ha (lambsquarters (CHEAL); Chenopodium album, post-emergence, CHEAL, compound 70 g/ha, CQC-m 0, read-out: % visual injury, Ob): 91%
pest or weed control at 4.38 g/ha (common poppy (PAPRH); Papaver rhoeas, post-emergence, compound 4.380 g/ha, CQC-m 0, read-out: % visual injury, Ob): 90%
pest or weed control at 8.75 g/ha (common poppy (PAPRH); Papaver rhoeas, post-emergence, compound 8.75 g/ha, CQC-m 0, read-out: % visual injury, Ob): 93%
pest or weed control at 17.5 g/ha (common poppy (PAPRH); Papaver rhoeas, post-emergence, compound 17.5 g/ha, CQC-m 0, read-out: % visual injury, Ob): 95%
pest or weed control at 35 g/ha (common poppy (PAPRH); Papaver rhoeas, post-emergence, compound 35 g/ha, CQC-m 0, read-out: % visual injury, Ob): 100%
pest or weed control at 70 g/ha (common poppy (PAPRH); Papaver rhoeas, post-emergence, compound 70 g/ha, CQC-m 0, read-out: % visual injury, Ob): 100%
% visual injury, Ob (wild chamomile (MATCH); compound 4.380 g/ha): 5%
% visual injury, Ob (wild chamomile (MATCH); compound 8.75 g/ha): 3%
% visual injury, Ob (wild chamomile (MATCH); compound 17.5 g/ha): 7%
% visual injury, Ob (wild chamomile (MATCH); compound 35 g/ha): 10%
% visual injury, Ob (wild chamomile (MATCH); compound 70 g/ha): 13%

Nc1c(F)c(-c2ccc3scnc3c2)nc(C(=O)O)c1Cl [compound 17]
% visual injury, Ob (spring wheat (TRZAS); TRZAS, 4.375 g/ha, applied alone): 0%
% visual injury, Ob (spring wheat (TRZAS); TRZAS, 8.75 g/ha, applied alone): 15%
% visual injury, Ob (spring wheat (TRZAS); TRZAS, 17.5 g/ha, applied alone): 30%
% visual injury, Ob (spring wheat (TRZAS); TRZAS, 35 g/ha, applied alone): 40%
% visual injury, Ob (spring wheat (TRZAS); TRZAS, 70 g/ha, applied alone): 45%
pest or weed control at 4.375 g/ha (lambsquarters (CHEAL); Chenopodium album, post-emergence, CHEAL, 4.375 g/ha, applied alone, read-out: % visual injury, Ob): 40%
pest or weed control at 8.75 g/ha (lambsquarters (CHEAL); Chenopodium album, post-emergence, CHEAL, 8.75 g/ha, applied alone, read-out: % visual injury, Ob): 60%
pest or weed control at 17.5 g/ha (lambsquarters (CHEAL); Chenopodium album, post-emergence, CHEAL, 17.5 g/ha, applied alone, read-out: % visual injury, Ob): 70%
pest or weed control at 35 g/ha (lambsquarters (CHEAL); Chenopodium album, post-emergence, CHEAL, 35 g/ha, applied alone, read-out: % visual injury, Ob): 80%
pest or weed control at 70 g/ha (lambsquarters (CHEAL); Chenopodium album, post-emergence, CHEAL, 70 g/ha, applied alone, read-out: % visual injury, Ob): 85%
pest or weed control at 4.375 g/ha (thistle (CIRAR); Cirsium arvense, post-emergence, CIRAR, 4.375 g/ha, applied alone, read-out: % visual injury, Ob): 0%
pest or weed control at 8.75 g/ha (thistle (CIRAR); Cirsium arvense, post-emergence, CIRAR, 8.75 g/ha, applied alone, read-out: % visual injury, Ob): 0%
pest or weed control at 17.5 g/ha (thistle (CIRAR); Cirsium arvense, post-emergence, CIRAR, 17.5 g/ha, applied alone, read-out: % visual injury, Ob): 10%
pest or weed control at 35 g/ha (thistle (CIRAR); Cirsium arvense, post-emergence, CIRAR, applied alone, read-out: % visual injury, Ob): 20%
pest or weed control at 70 g/ha (thistle (CIRAR); Cirsium arvense, post-emergence, CIRAR, 70 g/ha, applied alone, read-out: % visual injury, Ob): 20%
pest or weed control at 4.375 g/ha (common poppy (PAPRH); Papaver rhoeas, post-emergence, 4.375 g/ha, applied alone, read-out: % visual injury, Ob): 80%
pest or weed control at 8.75 g/ha (common poppy (PAPRH); Papaver rhoeas, post-emergence, 8.75 g/ha, applied alone, read-out: % visual injury, Ob): 85%
pest or weed control at 17.5 g/ha (common poppy (PAPRH); Papaver rhoeas, post-emergence, 17.5 g/ha, applied alone, read-out: % visual injury, Ob): 85%
pest or weed control at 35 g/ha (common poppy (PAPRH); Papaver rhoeas, post-emergence, 35 g/ha, applied alone, read-out: % visual injury, Ob): 95%
pest or weed control at 70 g/ha (common poppy (PAPRH); Papaver rhoeas, post-emergence, 70 g/ha, applied alone, read-out: % visual injury, Ob): 100%
plant injury at 4.375 g/ha (winter rape (BRSNW); Brassica napus, post-emergence, BRSNW, 4.375 g/ha, applied alone, read-out: % visual injury, Ob): 60%
plant injury at 8.75 g/ha (winter rape (BRSNW); Brassica napus, post-emergence, BRSNW, 8.75 g/ha, applied alone, read-out: % visual injury, Ob): 90%
plant injury at 17.5 g/ha (winter rape (BRSNW); Brassica napus, post-emergence, BRSNW, 17.5 g/ha, applied alone, read-out: % visual injury, Ob): 95%
plant injury at 35 g/ha (winter rape (BRSNW); Brassica napus, post-emergence, BRSNW, applied alone, read-out: % visual injury, Ob): 95%
plant injury at 70 g/ha (winter rape (BRSNW); Brassica napus, post-emergence, BRSNW, 70 g/ha, applied alone, read-out: % visual injury, Ob): 97%

Nc1c(F)c(-c2ccc3cc[nH]c3c2F)nc(C(=O)OCc2ccccc2)c1Cl [compound 2]
% visual injury, Ob (spring wheat (TRZAS); alone, 35 g/ha): 15%
% visual injury, observed (Ob) (lambsquarters (CHEAL); CHEAL, compound 2 4.380 + CQC-m 0 g/ha): 85%
% visual injury, observed (Ob) (lambsquarters (CHEAL); CHEAL, compound 2 8.75 + CQC-m 0 g/ha): 95%
% visual injury, observed (Ob) (lambsquarters (CHEAL); CHEAL, compound 2 17.5 + CQC-m 0 g/ha): 97%
% visual injury, observed (Ob) (lambsquarters (CHEAL); CHEAL, compound 2 35 + CQC-m 0 g/ha): 100%
% visual injury, observed (Ob) (lambsquarters (CHEAL); CHEAL, compound 2 70 + CQC-m 0 g/ha): 100%
pest or weed control at 35 g/ha (lambsquarters (CHEAL); Chenopodium album, post-emergence, alone, 35 g/ha, read-out: % visual injury, Ob): 97%
% visual injury, observed (Ob) (thistle (CIRAR); CIRAR, compound 2 4.380 + CQC-m 0 g/ha): 35%
% visual injury, observed (Ob) (thistle (CIRAR); CIRAR, compound 2 8.75 + CQC-m 0 g/ha): 63%
% visual injury, observed (Ob) (thistle (CIRAR); CIRAR, compound 2 17.5 + CQC-m 0 g/ha): 80%
% visual injury, observed (Ob) (thistle (CIRAR); CIRAR, compound 2 35 + CQC-m 0 g/ha): 99%
% visual injury, observed (Ob) (thistle (CIRAR); CIRAR, compound 2 70 + CQC-m 0 g/ha): 99%
pest or weed control at 35 g/ha (thistle (CIRAR); Cirsium arvense, post-emergence, alone, read-out: % visual injury, Ob): 70%
% visual injury, observed (Ob) (common poppy (PAPRH); [1]): 93%
% visual injury, observed (Ob) (common poppy (PAPRH); compound 2 8.75 + CQC-m 0 g/ha): 100%
% visual injury, observed (Ob) (common poppy (PAPRH); compound 2 17.5 + CQC-m 0 g/ha): 100%
% visual injury, observed (Ob) (common poppy (PAPRH); compound 2 35 + CQC-m 0 g/ha): 100%
% visual injury, observed (Ob) (common poppy (PAPRH); compound 2 70 + CQC-m 0 g/ha): 100%
% visual injury, observed (Ob) (wild chamomile (MATCH); [1]): 30%
% visual injury, observed (Ob) (wild chamomile (MATCH); compound 2 8.75 + CQC-m 0 g/ha): 58%
% visual injury, observed (Ob) (wild chamomile (MATCH); compound 2 17.5 + CQC-m 0 g/ha): 91%
% visual injury, observed (Ob) (wild chamomile (MATCH); compound 2 35 + CQC-m 0 g/ha): 98%
% visual injury, observed (Ob) (wild chamomile (MATCH); compound 2 70 + CQC-m 0 g/ha): 100%
% visual injury, observed (Ob) (winter rape (BRSNW); BRSNW, compound 2 4.380 + CQC-m 0 g/ha): 84%
% visual injury, observed (Ob) (winter rape (BRSNW); BRSNW, compound 2 8.75 + CQC-m 0 g/ha): 88%
% visual injury, observed (Ob) (winter rape (BRSNW); BRSNW, compound 2 17.5 + CQC-m 0 g/ha): 55%
% visual injury, observed (Ob) (winter rape (BRSNW); BRSNW, compound 2 35 + CQC-m 0 g/ha): 100%
% visual injury, observed (Ob) (winter rape (BRSNW); BRSNW, compound 2 70 + CQC-m 0 g/ha): 100%
plant injury at 35 g/ha (winter rape (BRSNW); Brassica napus, post-emergence, alone, read-out: % visual injury, Ob): 100%

From patent US9763445B2, “Safened herbicidal compositions comprising a pyridine carboxylic acid herbicide” (Dow AgroSciences, LLC, priority 2014, dated 2017)
